This note sets out measurements from ChEMBL document CHEMBL1135026, “Synthesis of fluorescent biochemical tools related to the 2-azetidinone class of cholesterol absorption inhibitors” (2002).

What all share (format): functional
The test system of experiment [1] is Rattus norvegicus. Nature of the experiment: Percent inhibition of 14C]cholesterol absorption into plasma using cholesterol absorption assay in rats at the dose of 3 ug/Kg.
Experiment [2] concerns Rattus norvegicus. The experiment in a line: Percent inhibition of 14C]cholesterol absorption into plasma using cholesterol absorption assay in rats at the dose of 10 ug/Kg.
Experiment [3] is filed under the species Rattus norvegicus. The experiment in a line: Compound was tested for cholesterol absorption inhibition in rats by bolus injection 1 mL) via the intestinal catheter into the small intestine, by cholesterol absorption assay. As to conditions: read-out: ID50 (the source's name).
The subject of experiment [4] is Rattus norvegicus. The experiment in a line: Percent inhibition of 14C]cholesterol absorption into plasma using cholesterol absorption assay in rats at the dose of 100 ug/Kg.
The subject of experiment [5] is Rattus norvegicus. Nature of the experiment: Percent inhibition of 14C]cholesterol absorption into plasma using cholesterol absorption assay in rats at the dose of 30 ug/Kg.
Experiment [6] has as its system Rattus norvegicus. Nature of the experiment: Percent inhibition of 14C]cholesterol absorption into plasma using cholesterol absorption assay in rats at the dose of 300 ug/Kg.
For experiment [7], the system named is Rattus norvegicus. Nature of the experiment: Percent inhibition of 14C]cholesterol absorption into plasma using cholesterol absorption assay in rats at the dose of 186 ug/Kg.
Experiment [8] has as its system Rattus norvegicus. The experiment in a line: Percent inhibition of 14C]cholesterol absorption into plasma using cholesterol absorption assay in rats at the dose of 56 ug/Kg.
The subject of experiment [9] is Rattus norvegicus. The experiment in a line: Percent inhibition of 14C]cholesterol absorption into plasma using cholesterol absorption assay in rats at the dose of 2000 ug/Kg.

As to `O=C1[C@H](CC[C@H](O)c2ccc(F)cc2)[C@@H](c2ccc(O)cc2)N1c1ccc(F)cc1` [EZETIMIBE], the inhibition in vivo at 0.003 mg/kg in the experiment with Rattus norvegicus [1] turned out to be 63%. Also, the inhibition in vivo at 0.01 mg/kg in the experiment with Rattus norvegicus [2] came to 74%. In the experiment listed under Rattus norvegicus [3], the ED50 came out at 1.6 µg/kg.

In the experiment on Rattus norvegicus [4], `O=C(O)[C@H]1O[C@@H](Oc2ccc([C@@H]3[C@@H](CC[C@H](O)c4ccc(F)cc4)C(=O)N3c3cccc4nsnc34)cc2)[C@H](O)[C@@H](O)[C@@H]1O` gave an inhibition in vivo at 0.1 mg/kg of 85%. This compound returned an inhibition in vivo at 0.01 mg/kg in the experiment with Rattus norvegicus [2] of 66%. Further, 0.03 mg/kg produced 83% inhibition in vivo with Rattus norvegicus [5].

`Cc1cc(C)n(B(F)F)c1/C=C1/C=CC(CCC(=O)NCC#Cc2ccc(N3C(=O)[C@H](CC[C@H](O)c4ccc(F)cc4)[C@H]3c3ccc(O[C@@H]4O[C@H](C(=O)O)[C@@H](O)[C@H](O)[C@H]4O)cc3)cc2)=N1` had an inhibition in vivo at 0.1 mg/kg with Rattus norvegicus [4] of 80%. Moreover, the inhibition in vivo at 0.03 mg/kg with Rattus norvegicus [5] was 58%. Testing at 0.3 mg/kg in the experiment with Rattus norvegicus [6] gave an inhibition in vivo of 92%.

In turn, `O=C(CCCCCNC(=O)c1ccc(-c2c3ccc(=O)cc-3oc3cc(O)ccc23)c(C(=O)O)c1)NCC#Cc1ccc(N2C(=O)[C@H](CC[C@H](O)c3ccc(F)cc3)[C@H]2c2ccc(O[C@@H]3O[C@H](C(=O)O)[C@@H](O)[C@H](O)[C@H]3O)cc2)cc1` yielded an inhibition in vivo at 0.186 mg/kg in the experiment on Rattus norvegicus [7] of 88%. This compound yielded an inhibition in vivo at 0.03 mg/kg with Rattus norvegicus [5] of 85%. In addition, in the experiment on Rattus norvegicus [8], 0.056 mg/kg produced 79% inhibition in vivo.

`COc1ccc([C@@H]2[C@@H](CCCc3ccccc3)C(=O)N2c2ccc(OC)cc2)cc1` [SCH-48461]: in the experiment with Rattus norvegicus [9], testing at 2 mg/kg gave an inhibition in vivo of 95%.

In turn, `O=C(O)[C@H]1O[C@@H](Oc2ccc([C@@H]3[C@@H](CC[C@H](O)c4ccc(F)cc4)C(=O)N3c3ccc(F)cc3)cc2)[C@H](O)[C@@H](O)[C@@H]1O` gave an inhibition in vivo at 0.01 mg/kg in the experiment on Rattus norvegicus [2] of 91%.

Broadly, the inhibition in vivo is the change of the read-out against control, counted positive when it falls. High values mean strong suppression, low ones little suppression.
